Data as given in patent EP4741392A1, “1H-PYRAZOLO[4,3-C]PYRIDINE COMPOUND, AND COMPOSITION THEREOF AND USE THEREOF” (Shenzhen TargetRx Co., Ltd., priority 2023, dated 2025).

Test system: Ramos cells with BTK WT
Assay: Phosphor-BTK(Y223) assay, suspended cells
Format: cell-based
Conditions: Homo sapiens, Ramos, phosphorylated BTK Y223, Ramos cells with BTK WT
How it was run: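 Ramos BTK WT cells (2.5 k/well) were treated with compound dilutions for 2 h at 37 °C, then 5 mM Na3VO4 for 3 h. Lysates were read by HTRF p-BTK(Y223) cryptate/d2 antibodies overnight at RT (665/620 ratio). IC50 came from a four-parameter fit of % inhibition versus blank and positive-control wells.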

Compound	IC50
CCOC(=O)c1cnc2cc(-c3cnc(-c4ccc(CNC(=O)c5cc(F)ccc5OC)cc4)c4c(N)n[nH]c34)nn2c1 [Example 45, ethyl 2-(3-amino-4-(4-((5-fluoro-2-methoxybenzoylamino)methyl)phenyl)-1H-pyrazolo[4,3-c]pyridin-7-yl)pyrazolo[1,5-a]pyrimidine-6-carboxylate]	> 50 nM
COc1ccc(F)cc1C(=O)NCc1ccc(-c2ncc(-c3ncc(C(F)(F)F)cn3)c3[nH]nc(N)c23)cc1 [Example 42, N-(4-(3-amino-7-(5-(trifluoromethyl)pyrimidin-2-yl)-1H-pyrazolo[4,3-c]pyridin-4-yl)benzyl)-5-fluoro-2-methoxybenzamide]	10 to 50 nM
COc1ccc(F)cc1C(=O)NCc1ccc(-c2ncc(-c3ccn(C)n3)c3[nH]nc(N)c23)cc1 [Example 23, N-(4-(3-amino-7-(1-methyl-1H-pyrazol-3-yl)-1H-pyrazolo[4,3-c]pyridin-4-yl)benzyl)-5-fluoro-2-methoxybenzamide]	≤ 5 nM
COc1ccc(F)cc1C(=O)NCc1ccc(-c2ncc(-c3ccccn3)c3[nH]nc(N)c23)cc1 [Example 15, N-(4-(3-amino-7-(pyridin-2-yl)-1H-pyrazolo[4,3-c]pyridin-4-yl)benzyl)-5-fluoro-2-methoxybenzamide]	5 to 10 nM
COc1ccc(F)cc1C(=O)NCc1ccc(-c2ncc(-c3cn4ccnc4cn3)c3[nH]nc(N)c23)cc1 [Example 50, N-(4-(3-amino-7-(imidazo[1,2-a]pyrazin-6-yl)-1H-pyrazolo[4,3-c]pyridin-4-yl)benzyl)-5-fluoro-2-methoxybenzamide]	5 to 10 nM
COc1ccc(F)cc1C(=O)NCc1ccc(-c2ncc(-c3ccc(C(F)(F)F)cn3)c3[nH]nc(N)c23)cc1 [Example 24, N-(4-(3-amino-7-(5-(trifluoromethyl)pyridin-2-yl)-1H-pyrazolo[4,3-c]pyridin-4-yl)benzyl)-5-fluoro-2-methoxybenzamide]	≤ 5 nM
COc1ccc(F)cc1C(=O)NCc1ccc(-c2ncc(-c3ccncn3)c3[nH]nc(N)c23)cc1 [Example 19]	5 to 10 nM
COc1ccc(F)cc1C(=O)NCc1ccc(-c2nc(C(C)C(F)(F)F)c(-c3ccn(C)n3)c3[nH]nc(N)c23)cc1 (stereo not drawn) [Example 6, N-(4-(3-amino-7-(1-methyl-1H-pyrazol-3-yl)-6-(1,1,1-trifluoropropan-2-yl)-1H-pyrazolo[4,3-c]pyridin-4-yl)benzyl)-5-fluoro-2-methoxybenzamide]	≤ 5 nM
COc1ccc(F)cc1C(=O)NCc1ccc(-c2ncc(-c3cc[nH]n3)c3[nH]nc(N)c23)cc1 [Example 31, N-(4-(3-amino-7-(1H-pyrazol-3-yl)-1H-pyrazolo[4,3-c]pyridin-4-yl)benzyl)-5-fluoro-2-methoxybenzamide]	10 to 50 nM
COc1ccc(F)cc1C(=O)NCc1ccc(-c2nc(C(C)C(F)(F)F)c(-c3ncccn3)c3[nH]nc(N)c23)cc1 (single isomer, unassigned) [Example 7-1, N-(4-(3-amino-7-(pyrimidin-2-yl)-6-(1,1,1-trifluoropropan-2-yl)-1H-pyrazolo[4,3-c]pyridin-4-yl)benzyl)-5-fluoro-2-methoxybenzamide]	≤ 5 nM
COc1ccc(F)cc1C(=O)NCc1ccc(-c2ncc(-c3ncccn3)c3[nH]nc(N)c23)cc1 [Example 17, N-(4-(3-amino-7-(pyrimidin-2-yl)-1H-pyrazolo[4,3-c]pyridin-4-yl)benzyl)-5-fluoro-2-methoxybenzamide]	5 to 10 nM
COc1ccc(F)cc1C(=O)NCc1ccc(-c2ncc(-c3ccc(C4COC4)cn3)c3[nH]nc(N)c23)cc1 [Example 43, N-(4-(3-amino-7-(5-(oxetan-3-yl)pyridin-2-yl)-1H-pyrazolo[4,3-c]pyridin-4-yl)benzyl)-5-fluoro-2-methoxybenzamide]	≤ 5 nM
COc1ccc(F)cc1C(=O)NCc1ccc(-c2ncc(-c3ccn(CC(F)(F)F)n3)c3[nH]nc(N)c23)cc1 [Example 28, N-(4-(3-amino-7-(1-(2,2,2-trifluoroethyl)-1H-pyrazol-3-yl)-1H-pyrazolo[4,3-c]pyridin-4-yl)benzyl)-5-fluoro-2-methoxybenzamide]	10 to 50 nM
COc1ccc(F)cc1C(=O)NCc1ccc(-c2ncc(-c3ccc(S(C)(=O)=O)cn3)c3[nH]nc(N)c23)cc1 [Example 35, N-(4-(3-amino-7-(5-(methylsulfonyl)pyridin-2-yl)-1H-pyrazolo[4,3-c]pyridin-4-yl)benzyl)-5-fluoro-2-methoxybenzamide]	≤ 5 nM
COc1ccc(F)cc1C(=O)NCc1ccc(-c2ncc(-c3ncc(C)cn3)c3[nH]nc(N)c23)cc1 [Example 39, N-(4-(3-amino-7-(5-methylpyrimidin-2-yl)-1H-pyrazolo[4,3-c]pyridin-4-yl)benzyl)-5-fluoro-2-methoxybenzamide]	≤ 5 nM

Results, then the compound that gave them:

IC50	Compound
≤ 5 nM	COc1ccc(F)cc1C(=O)NCc1ccc(-c2ncc(-c3cc4cnccn4n3)c3[nH]nc(N)c23)cc1 [Example 78, N-(4-(3-amino-7-(pyrazolo[1,5-a]pyrazin-2-yl)-1H-pyrazolo[4,3-c]pyridin-4-yl)benzyl)-5-fluoro-2-methoxybenzamide]
5 to 10 nM	COc1ccc(F)cc1C(=O)NCc1ccc(-c2ncc(-c3ccc(C(=O)N4C[C@H](C)O[C@@H](C)C4)cn3)c3[nH]nc(N)c23)cc1 [Example 53, N-(4-(3-amino-7-(5-((2S,6S)-2,6-dimethylmorpholine-4-carbonyl)pyridin-2-yl)-1H-pyrazolo[4,3-c]pyridin-4-yl)benzyl)-5-fluoro-2-methoxybenzamide]
5 to 10 nM	COc1ccc(F)cc1C(=O)NCc1ccc(-c2nc(C)c(-c3ncccn3)c3[nH]nc(N)c23)cc1 [Example 84, N-(4-(3-amino-6-methyl-7-(pyrimidin-2-yl)-1H-pyrazolo[4,3-c]pyridin-4-yl)benzyl)-5-fluoro-2-methoxybenzamide]
5 to 10 nM	COc1ccc(F)cc1C(=O)NCc1ccc(-c2ncc(-c3ccc(OCCN4CCCC4)cn3)c3[nH]nc(N)c23)cc1 [Example 62, N-(4-(3-amino-7-(5-(2-(pyrrolidin-1-yl)ethoxy)pyridin-2-yl)-1H-pyrazolo[4,3-c]pyridin-4-yl)benzyl)-5-fluoro-2-methoxybenzamide]
≤ 5 nM	COc1ccc(F)cc1C(=O)NCc1ccc(-c2ncc(-c3cnn4cccnc34)c3[nH]nc(N)c23)cc1 [Example 70, N-(4-(3-amino-7-(pyrazolo[1,5-a]pyrimidin-3-yl)-1H-pyrazolo[4,3-c]pyridin-4-yl)benzyl)-5-fluoro-2-methoxybenzamide]
≤ 5 nM	COc1ccc(F)cc1C(=O)NCc1ccc(-c2ncc(-c3cc4ccccn4n3)c3[nH]nc(N)c23)cc1 [Example 69, N-(4-(3-amino-7-(pyrazolo[1,5-a]pyridin-2-yl)-1H-pyrazolo[4,3-c]pyridin-4-yl)benzyl)-5-fluoro-2-methoxybenzamide]
≤ 5 nM	COc1ccc(F)cc1C(=O)NCc1ccc(-c2ncc(-c3ccc(N4CCN(C)CC4)cn3)c3[nH]nc(N)c23)cc1 [Example 73, N-(4-(3-amino-7-(5-(4-methylpiperazin-1-yl)pyridin-2-yl)-1H-pyrazolo[4,3-c]pyridin-4-yl)benzyl)-5-fluoro-2-methoxybenzamide]
≤ 5 nM	COc1ccc(F)cc1C(=O)NCc1ccc(-c2ncc(-c3ccc(C(=O)N4CCOCC4)cn3)c3[nH]nc(N)c23)cc1 [Example 52, N-(4-(3-amino-7-(5-(morpholine-4-carbonyl)pyridin-2-yl)-1H-pyrazolo[4,3-c]pyridin-4-yl)benzyl)-5-fluoro-2-methoxybenzamide]
5 to 10 nM	COc1ccc(F)cc1C(=O)NCc1ccc(-c2ncc(-c3ccc(CN4CCCCC4)cn3)c3[nH]nc(N)c23)cc1 [Example 66, N-(4-(3-amino-7-(5-(piperidin-1-ylmethyl)pyridin-2-yl)-1H-pyrazolo[4,3-c]pyridin-4-yl)benzyl)-5-fluoro-2-methoxybenzamide]
10 to 50 nM	COc1ccc(F)cc1C(=O)NCc1ccc(-c2ncc(-c3ccc4c(n3)nc3n4CCOC3)c3[nH]nc(N)c23)cc1 [Example 102, N-(4-(3-amino-7-(6,7-dihydro-9H-pyrido[2',3':4,5]imidazo[2,1-c][1,4]oxazin-2-yl)-1H-pyrazolo[4,3-c]pyridin-4-yl)benzyl)-5-fluoro-2-methoxybenzamide]
≤ 5 nM	COc1ccc(F)cc1C(=O)NCc1ccc(-c2ncc(-c3ccc(C(C)(C)O)cn3)c3[nH]nc(N)c23)cc1 [Example 65, N-(4-(3-amino-7-(5-(2-hydroxypropan-2-yl)pyridin-2-yl)-1H-pyrazolo[4,3-c]pyridin-4-yl)benzyl)-5-fluoro-2-methoxybenzamide]
≤ 5 nM	COc1ccc(F)cc1C(=O)NCc1ccc(-c2ncc(-c3ccc(OCCN4CCOCC4)cn3)c3[nH]nc(N)c23)cc1 [Example 61, N-(4-(3-amino-7-(5-(2-morpholinoethoxy)pyridin-2-yl)-1H-pyrazolo[4,3-c]pyridin-4-yl)benzyl)-5-fluoro-2-methoxybenzamide]

Same assay, conditions: Homo sapiens; phosphorylated BTK Y223, Ramos cells with BTK WT

Compound	IC50
COc1ccc(F)cc1C(=O)NCc1ccc(-c2ncc(-c3ccc(NC(=O)C4CC4)cn3)c3[nH]nc(N)c23)cc1 [Example 79, N-(4-(3-amino-7-(5-(cyclopropaneformamido)pyridin-2-yl)-1H-pyrazolo[4,3-c]pyridin-4-yl)benzyl)-5-fluoro-2-methoxybenzamide]	5 to 10 nM

Same assay, conditions: phosphorylated BTK Y223, Ramos cells with BTK WT

Compound	IC50
COc1ccc(F)cc1C(=O)NCc1ccc(-c2nc(C(C)C(F)(F)F)cc3[nH]nc(N)c23)cc1 (single isomer, unassigned) [Example 3, N-(4-(3-amino-6-(1,1,1-trifluoropropan-2-yl)-1H-pyrazolo[4,3-c]pyridin-4-yl)benzyl)-5-fluoro-2-methoxybenzamide]	5 to 10 nM
N-(4-(3-amino-7-(1-(difluoromethyl)-1H-pyrazol-3-yl)-1H-pyrazolo[4,3-c]pyridin-4-yl)benzyl)-5-fluoro-2-methoxybenzamide [Example 29]	≤ 5 nM
